Results from ChEMBL document CHEMBL3286233, “Design and synthesis of systemically active metabotropic glutamate subtype-2 and -3 (mGlu2/3) receptor positive allosteric modulators (PAMs): pharmacological characterization and assessment in a rat model of cocaine dependence” (J Med Chem, 2014).

Columns and labels:
[1] = Tmax in rat at 10 mg/kg, ip; format: ADME, organism-based; parameters: dose 10 mg/kg, route intraperitoneal; conditions: in vivo
[2] = test system: Nucleic Acid; test: Ratio of drug uptake from brain to plasma in rat after 30 mins; format: ADME; conditions: 0.5 h
[3] = test system: Rattus norvegicus; test: Tmax in rat at 20 mg/kg, po; format: ADME, organism-based; parameters: dose 20 mg/kg, route oral; conditions: in vivo
[4] = test system: Rattus norvegicus; test: AUC (0 to t) in rat at 20 mg/kg, po; format: ADME, organism-based, Plasma; parameters: dose 20 mg/kg, route oral; conditions: in vivo
[5] = test system: Plasma; test: Plasma concentration in rat at 20 mg/kg, po; format: ADME, organism-based; parameters: dose 20 mg/kg, route oral; conditions: in vivo
[6] = test system: Rattus norvegicus; test: Volume of distribution at steady state in rat at 2 mg/kg, iv; format: ADME, organism-based; parameters: dose 2 mg/kg, route intravenous; conditions: in vivo
[7] = test system: Rattus norvegicus; test: Cmax in rat at 20 mg/kg, po; format: ADME, organism-based; parameters: dose 20 mg/kg, route oral; conditions: in vivo
[8] = test system: Rattus norvegicus; test: AUC (0 to t) in rat at 2 mg/kg, iv; format: ADME, organism-based, Plasma; parameters: dose 2 mg/kg, route intravenous; conditions: in vivo
[9] = test system: Rattus norvegicus; test: Cmax in rat at 2 mg/kg, iv; format: ADME, organism-based; parameters: dose 2 mg/kg, route intravenous; conditions: in vivo
[10] = test system: Brain; test: Drug uptake in rat brain at 20 mg/kg, po; format: ADME, organism-based; parameters: dose 20 mg/kg, route oral; conditions: in vivo, read-out: Drug uptake

Row | SMILES | Tmax [1] [min] | BPR [2] | Tmax [3] [min] | AUCt [4] [µmol·min/L] | concentration [5] [µM] | Vdss [6] [L/kg] | Cmax [7] [µM] | AUCt [8] [µmol·min/L] | Cmax [9] [µM] | concentration [10] [µM]
1 | CCCC(=O)c1ccc(OCCCCOc2cc(C(=O)O)ccc2OC)c(C)c1O | 30 | – | – | – | – | – | – | – | – | –
2 | COc1cc(C(=O)O)ccc1OCCCCOc1ccc(C(=O)CC(C)(C)C)c(O)c1C | 30 | 0.02 | – | – | – | – | – | – | – | –
3 | COc1ccc(C(=O)O)cc1OCCCCOc1ccc(C(=O)CC(C)(C)C)c(O)c1C | 30 | – | – | – | – | – | – | – | – | –
4 | Cc1c(OCCCCOc2ccc(F)c(C(=O)O)c2)ccc(C(=O)CC(C)C)c1O | – | – | 30 | 720.5 | 4.23 | 0.89 | 12.5 | 123.7 | 3.52 | 0.23
5 | COc1cc(C(=O)O)ccc1OCCCCOc1ccc(C(=O)CC(C)C)c(O)c1C | 30 | – | 90 | 1274.6 | 16.4 | 0.55 | 2.75 | 304.6 | 6.43 | 0.81
6 | CCC(=O)c1ccc(OCCCCOc2ccc(F)c(C(=O)O)c2)c(C)c1O | 30 | – | – | – | – | – | – | – | – | –
7 | Cc1c(OCCCCOc2ccc(C(=O)O)cc2)ccc(C(=O)CC(C)C)c1O | – | – | 135 | 544.8 | 5.29 | 0.81 | 2.57 | 231.7 | 5 | 1.12
8 | Cc1c(OCCCCOc2ccc(C(=O)CC(C)(C)C)c(O)c2C)cccc1C(=O)O | 30 | – | – | – | – | – | – | – | – | –
9 | Cc1c(OCCCCOc2ccc(F)c(C(=O)O)c2)ccc(C(=O)CC(C)(C)C)c1O | 30 | – | – | – | – | – | – | – | – | –
10 | COc1ccc(C(=O)O)cc1OCCCCOc1ccc(C(=O)CC(C)C)c(O)c1C | – | – | 96 | 466.2 | – | 2.87 | 1.05 | 77.2 | 2.15 | –
